Our source for the IC50, Deaths/total and T/C values is ChEMBL document CHEMBL1125470, “Novel sulfonamides as potential, systemically active antitumor agents” (J Med Chem, 1992).

One assay concerns KB. Put plainly: In vitro inhibitory activity against KB (human carcinoma of the nasopharynx) cell proliferation. It counts as functional, cell-based.
Assay [1] has as its system Mus musculus. As to the kind of experiment: Ratio between dead mices and total mices at the dose of 12.5 (mg/kg/day.); 0/6. Format: functional.
Assay [2] relates to Mus musculus. As to the kind of experiment: Ratio between dead mices and total mices at the dose of 25 (mg/kg/day.); 0/6. It counts as functional.
Assay [3] has as its system Mus musculus. As to the kind of experiment: Ratio between dead mices and total mices at the dose of 50 (mg/kg/day.); 0/6. It counts as functional.
Assay [4] concerns MC-38. Put plainly: In vitro inhibitory activity against colon 38 cell proliferation. It counts as functional, cell-based. The settings on record: Mus musculus.
In assay [5] the test system is MC-38. As to the kind of experiment: Ratio between Tumor weight of treated mice and Tumor weight of control mice * 100 at the dose of 25 (mg/kg/day). Format: functional.
The test system of assay [6] is MC-38. As to the kind of experiment: Ratio between Tumor weight of treated mice and Tumor weight of control mice * 100 at the dose of 50 (mg/kg/day). It counts as functional.
The subject of assay [7] is MC-38. As to the kind of experiment: Ratio between Tumor weight of treated mice and Tumor weight of control mice * 100 at the dose of 12.5 (mg/kg/day). Format: functional.
Assay [8] relates to Mus musculus. As to the kind of experiment: Ratio between dead mices and total mices at the dose of 100 (mg/kg/day.); 0/6. Format: functional.
In assay [9] the test system is Mus musculus. As to the kind of experiment: Ratio between dead mices and total mices at the dose of 200 (mg/kg/day.); 0/6. It counts as functional.
Assay [10] has as its system Mus musculus. As to the kind of experiment: Ratio between dead mices and total mices at the dose of 400 (mg/kg/day.); 0/6. Format: functional.
Assay [11] concerns MC-38. Put plainly: Ratio between Tumor weight of treated mice and Tumor weight of control mice * 100 at the dose of 100 (mg/kg/day.). It counts as functional.
In assay [12] the test system is MC-38. As to the kind of experiment: Ratio between Tumor weight of treated mice and Tumor weight of control mice * 100 at the dose of 200 (mg/kg/day.). It counts as functional.
Assay [13] concerns MC-38. As to the kind of experiment: Ratio between Tumor weight of treated mice and Tumor weight of control mice * 100 at the dose of 400 (mg/kg/day.). Format: functional.
Assay [14] concerns MC-38. As to the kind of experiment: Ratio between Tumor weight of treated mice and Tumor weight of control mice * 100 at the dose of 50 (mg/kg/day.). It counts as functional.
The subject of assay [15] is Mus musculus. As to the kind of experiment: Ratio between dead mices and total mices at the dose of 200 (mg/kg/day.); 2/6. It counts as functional.
Assay [16] deals with MC-38. As to the kind of experiment: Ratio between Tumor weight of treated mice and Tumor weight of control mice * 100 at the dose of 200 (mg/kg/day). It counts as functional.
Assay [17] deals with MC-38. Put plainly: Ratio between Tumor weight of treated mice and Tumor weight of control mice * 100 at the dose of 100 (mg/kg/day). Format: functional.

Values after ≈ are worked out from the molar mass of the structure shown.

With `COc1ccc(S(=O)(=O)Nc2cccnc2Nc2ccncc2)cc1`, the IC50 – broadly, the midpoint of a concentration-inhibition curve – with KB came to 1 µg/mL (≈ 2.81 µM); in the assay on MC-38 [4], 1.4 µg/mL (≈ 3.93 µM). Moreover, the Deaths/total in the assay on Mus musculus [1], in the assay with Mus musculus [2] and in the assay on Mus musculus [3] was 0 each time. In addition, the T/C (as a rule, the result in the treated group divided by that in the control group, in per cent) in the assay on MC-38 [5] was found to be 35%; with MC-38 [6], 14%; in the assay with MC-38 [7] it was 41%.
Turning to `Cc1ccc(S(=O)(=O)Nc2cccnc2Nc2ccccc2)cc1`, the IC50 with KB is 1.5 µg/mL (≈ 4.42 µM); with MC-38 [4], 3.2 µg/mL (≈ 9.43 µM). For the same compound, the Deaths/total in the assay with Mus musculus [8], in the assay on Mus musculus [9] and in the assay on Mus musculus [10] was 0 throughout. In addition, the T/C in the assay on MC-38 [11] is listed as 20%; in the assay on MC-38 [12], 19%; in the assay on MC-38 [13], 1%.
As for `Cc1ccc(S(=O)(=O)Nc2ccccc2Nc2ccccc2)cc1`, the values for the IC50 in the assay on KB and with MC-38 [4] were 0.46 µg/mL (≈ 1.36 µM) and 1.2 µg/mL (≈ 3.55 µM), respectively.
With `COc1ccc(S(=O)(=O)Nc2cccnc2Nc2ccccc2)cc1`, the results for the IC50 in the assay on KB and in the assay on MC-38 [4] were 0.27 µg/mL (≈ 0.76 µM) and 0.45 µg/mL (≈ 1.27 µM), respectively. Besides, the Deaths/total with Mus musculus [8], with Mus musculus [9] and in the assay with Mus musculus [3] was 0 throughout. For the same compound, the T/C with MC-38 [11] was determined as 2%; in the assay with MC-38 [12], 1%; in the assay on MC-38 [14], 27%.
As for `COc1ccc(Nc2ncccc2NS(=O)(=O)c2ccc(OC)cc2)cc1`, the IC50 with KB stood at 1.9 µg/mL (≈ 4.93 µM); with MC-38 [4], 3.6 µg/mL (≈ 9.34 µM). In addition, the results for the Deaths/total in the assay on Mus musculus [8], with Mus musculus [15] and in the assay with Mus musculus [3] were 0, 2 and 0, respectively. The T/C was found to be 1% in the assay on MC-38 [11], 0% in the assay on MC-38 [16] and 30% in the assay on MC-38 [14].
`COc1ccc(S(=O)(=O)Nc2cccnc2Nc2ccc(O)cc2)cc1` [ABT-751]: the IC50 with KB was determined as 0.29 µg/mL (≈ 0.781 µM); with MC-38 [4], 0.38 µg/mL (≈ 1.02 µM). Moreover, the Deaths/total in the assay with Mus musculus [8], with Mus musculus [1], in the assay on Mus musculus [2] and in the assay on Mus musculus [3] was 0 each time. For the same compound, the T/C worked out at 2% in the assay with MC-38 [17], 32% in the assay on MC-38 [5], 3% in the assay with MC-38 [6] and 59% with MC-38 [7].
